# US20080146500A1, “Selective Vpac2 Receptor Peptide Agonists” (priority 2004, published 2008)
# Ends that are not written are not given here.
# Tests used:
# Normal Wistar rats = experiment: Intravenous glucose tolerance test (IVGTT), serum glucose and insulin; assay type: in vivo, rat
# Method: Intravenous glucose tolerance test (IVGTT): Normal Wistar rats are fasted overnight and are anesthetized prior to the experiment. A blood sampling catheter is inserted into the rats. The compound is given in the jugular vein. Blood samples are taken from the carotid artery. A blood sample is drawn immediately prior to the injection of glucose along with the compound. After the initial blood sample, glucose mixed with compound is injected intravenously (i.v.). Compound may also be injected intravenously or subcutaneously prior to the glucose challenge. A glucose challenge of 0.5 g/kg body weight is given, injecting a total of 1.5 mL vehicle with glucose and agonist per kg body weight. The peptide concentrations are varied to produce the desired dose in μg/kg. Blood samples are drawn at 2, 4, 6 and 10 minutes after giving glucose. The control group of animals receives the same vehicle along with glucose, but with no compound added. In some instances, a 30 minute post-glucose blood sample is drawn. Aprotinin is added to the blood sample (250-500 kIU/ml blood). The serum is then analyzed for glucose and insulin using standard methodologies.
# The assay uses a formulated and calibrated peptide stock in PBS. Normally, this stock is a prediluted 100 μM stock. However, a more concentrated stock with approximately 1 mg agonist per 1 mL is used. The specific concentration is always known. Variability in the maximal response is mostly due to variability in the vehicle dose.
# ZDF rats = experiment: Glucose lowering in conscious food-deprived diabetic ZDF rats; assay type: in vivo, rat
# Method: Glucose lowering in diabetic ZDF rats. ZDF rats, 8-9 weeks old with fed glucose levels of approximately 300 mg/dl are used for this experiment. The animals are randomised into control (vehicle) and treatment group(s) on the day of the experiment and are conscious throughout the experiment. The compound is injected intravenously at the start of the experiment and blood samples are drawn from the tail vein immediately prior to compound injection and then 0.5, 1, 2, 3, 4 and 24 h after compound injection. The animals are deprived of food during the first 2 or 4 h of the experiment. The blood samples are collected in EDTA tubes, aprotinin added and immediately put on ice pending insulin and glucose analysis using standard methods.
# [1] = 10 μg/kg iv, 0 h (immediately prior to injection)
# [2] = 10 μg/kg iv, 0.5 h after injection
# [3] = 10 μg/kg iv, 1 h after injection
# [4] = 10 μg/kg iv, 2 h after injection
# [5] = 10 μg/kg iv, 4 h after injection (food access after 2 h)
# [6] = 10 μg/kg iv, 24 h after injection (food access after 2 h)
# [7] = 30 μg/kg iv, 0 h (immediately prior to injection)
# [8] = 30 μg/kg iv, 0.5 h after injection
# [9] = 30 μg/kg iv, 1 h after injection
# [10] = 30 μg/kg iv, 2 h after injection
# [11] = 30 μg/kg iv, 4 h after injection (food access after 2 h)
# [12] = 30 μg/kg iv, 24 h after injection (food access after 2 h)
# [13] = 100 μg/kg iv, 0 h (immediately prior to injection)
# [14] = 100 μg/kg iv, 1 h after injection
# [15] = 100 μg/kg iv, 2 h after injection
# [16] = 100 μg/kg iv, 3 h after injection
# [17] = 100 μg/kg iv, 4 h after injection
# [18] = 100 μg/kg iv, 24 h after injection (food access after 4 h)
substance,measurement,setting,value
"P137: PEGylated material obtained from P120 and methoxy-PEG2-MAL-40K (HSDAVFTDNYTRLRKQVAAKKYLQSIKNKRYGGPSSGAPPPC; also: PEGylated with methoxy-PEG2-MAL-40K, site not given here) [Agonist P137]","% increase AUC (insulin, 0-10 min after glucose)","Normal Wistar rats; Dose = 10 μg/kg iv, time between glucose & compound 0 h",+366%
same,"% increase AUC (insulin, 0-10 min after glucose)","Normal Wistar rats; Dose = 10 μg/kg iv, time between glucose & compound 4 h",+193%
same,"% increase AUC (insulin, 0-10 min after glucose)","Normal Wistar rats; Dose = 30 μg/kg iv, time between glucose & compound 4 h",+321%
same,"% increase AUC (insulin, 0-10 min after glucose)","Normal Wistar rats; Dose = 100 μg/kg iv, time between glucose & compound 4 h",+487%
same,glucose,ZDF rats; [1],344 mg/dL
same,insulin,ZDF rats; [1],12.5 ng/mL
same,glucose,ZDF rats; [2],277 mg/dL
same,insulin,ZDF rats; [2],21.2 ng/mL
same,glucose,ZDF rats; [3],244 mg/dL
same,insulin,ZDF rats; [3],18.5 ng/mL
same,glucose,ZDF rats; [4],199 mg/dL
same,insulin,ZDF rats; [4],20.0 ng/mL
same,glucose,ZDF rats; [5],361 mg/dL
same,insulin,ZDF rats; [5],18.5 ng/mL
same,glucose,ZDF rats; [6],336 mg/dL
same,insulin,ZDF rats; [6],15.0 ng/mL
same,glucose,ZDF rats; [7],329 mg/dL
same,insulin,ZDF rats; [7],10.9 ng/mL
same,glucose,ZDF rats; [8],254 mg/dL
same,insulin,ZDF rats; [8],27.0 ng/mL
same,glucose,ZDF rats; [9],218 mg/dL
same,insulin,ZDF rats; [9],23.7 ng/mL
same,glucose,ZDF rats; [10],156 mg/dL
same,insulin,ZDF rats; [10],23.1 ng/mL
same,glucose,ZDF rats; [11],347 mg/dL
same,insulin,ZDF rats; [11],20.8 ng/mL
same,glucose,ZDF rats; [12],347 mg/dL
same,insulin,ZDF rats; [12],16.0 ng/mL
same,glucose,ZDF rats; [13],307 mg/dL
same,insulin,ZDF rats; [13],17.8 ng/mL
same,glucose,ZDF rats; [14],362 mg/dL
same,insulin,ZDF rats; [14],19.9 ng/mL
same,glucose,ZDF rats; [15],360 mg/dL
same,insulin,ZDF rats; [15],15.9 ng/mL
same,glucose,ZDF rats; [16],323 mg/dL
same,insulin,ZDF rats; [16],15.4 ng/mL
same,glucose,ZDF rats; [17],304 mg/dL
same,insulin,ZDF rats; [17],15.1 ng/mL
same,glucose,ZDF rats; [18],400 mg/dL
same,insulin,ZDF rats; [18],11.1 ng/mL
